# Data taken from patent US20070093520A1, “Method of treatment of diarrhea-predominant irritable bowel syndrome in a subject” (priority 2005, published 2007).
# Tested on: diarrhea-predominant IBS subjects
# Test: 3007 Study: open-label 52-week safety study, adverse events and withdrawals
# Details: P/C group
compound,measurement,value
"Cc1nccn1C[C@H]1CCc2c(c3cccc4c3n2CCC4)C1=O [cilansetron, (R)-(−)-4,5,6,8,9,10-hexahydro-10-[(2-methyl-1H-imidazol-1-yl)methyl]-11H-pyrido-[3,2,1-jk]-carbazol-11-one]",TEAE: Dyspnoea NOS,1 (<1%) n (%)
same,TEAE: Dysuria,0 n (%)
same,TEAE: Ear Disorders NEC,1 (<1%) n (%)
same,TEAE: Ear Pain,1 (<1%) n (%)
same,TEAE: Ear and Labyrinth Disorders,4 (1%) n (%)
same,TEAE: Eczema,1 (<1%) n (%)
same,TEAE: Elevated Cholesterol,3 (1%) n (%)
same,TEAE: Endocrine Disorders,2 (<1%) n (%)
same,TEAE: Endometriosis*,0 n (%)
same,TEAE: Erythema,0 n (%)
same,TEAE: Erythemas,0 n (%)
same,TEAE: External Ear Disorders NEC,0 n (%)
same,TEAE: Eye Disorders,5 (2%) n (%)
same,TEAE: Fall,2 (<1%) n (%)
same,TEAE: Fatigue,6 (2%) n (%)
same,TEAE: Fatigue Aggravated,0 n (%)
same,TEAE: Febrile Disorders,1 (<1%) n (%)
same,TEAE: Fibroma NOS,1 (<1%) n (%)
same,TEAE: Fluid Intake Increased,1 (<1%) n (%)
same,TEAE: Fluid in Middle Ear,0 n (%)
same,TEAE: Flushing,0 n (%)
same,TEAE: Food Allergy,1 (<1%) n (%)
same,TEAE: General Disorders and Administration Site Conditions,19 (7%) n (%)
same,TEAE: General Signs and Symptoms NEC,3 (1%) n (%)
same,TEAE: Gilbert's Syndrome,1 (<1%) n (%)
same,TEAE: Glucose Tolerance Impaired,1 (<1%) n (%)
same,TEAE: Glycosuria,1 (<1%) n (%)
same,TEAE: Goitre,0 n (%)
same,TEAE: Gout,0 n (%)
same,TEAE: Haematoma NOS,0 n (%)
same,TEAE: Haematuria,0 n (%)
same,TEAE: Hallucination NOS,1 (<1%) n (%)
same,"TEAE: Hallucination, Auditory",1 (<1%) n (%)
same,TEAE: Hand Fracture,1 (<1%) n (%)
same,TEAE: Hearing Losses,0 n (%)
same,TEAE: Hepatitis NOS,0 n (%)
same,TEAE: Hepatobiliary Disorders,1 (<1%) n (%)
same,TEAE: Hepatobiliary Signs and Symptoms,0 n (%)
same,TEAE: Hepatocellular Damage and Hepatitis NEC,0 n (%)
same,TEAE: Hepatosplenomegaly NOS,0 n (%)
same,TEAE: Hernia NOS,1 (<1%) n (%)
same,TEAE: Hernia Repair NOS,0 n (%)
same,TEAE: Hernia Repairs,0 n (%)
same,TEAE: Hernias NEC,1 (<1%) n (%)
same,TEAE: Hot Flushes NOS,0 n (%)
same,TEAE: Hypercholesterolaemia,3 (1%) n (%)
same,TEAE: Hyperglycaemia NOS,3 (1%) n (%)
same,TEAE: Hyperglycaemic Conditions NEC,4 (1%) n (%)
same,TEAE: Hyperkeratoses,1 (<1%) n (%)
same,TEAE: Hyperkeratosis,1 (<1%) n (%)
same,TEAE: Hyperlipidaemia NOS,0 n (%)
same,TEAE: Hyperlipidaemias NEC,0 n (%)
same,TEAE: Hypersensitivity NOS,1 (<1%) n (%)
same,TEAE: Hypertension Aggravated,1 (<1%) n (%)
same,TEAE: Hypertension NOS,6 (2%) n (%)
same,TEAE: Hypotension NOS,1 (<1%) n (%)
same,TEAE: Immune System Disorders,4 (1%) n (%)
same,TEAE: Inborn Errors of Bilirubin Metabolism,1 (<1%) n (%)
same,TEAE: Influenza Like Illness,1 (<1%) n (%)
same,TEAE: Ingrowing Nail,1 (<1%) n (%)
same,TEAE: Inner Ear Disorders NEC,0 n (%)
same,TEAE: Inner Ear Infections and Inflammations,1 (<1%) n (%)
same,TEAE: Inner Ear Signs and Symptoms,2 (<1%) n (%)
same,TEAE: Insomnia,0 n (%)
same,TEAE: Insomnia Exacerbated,0 n (%)
same,TEAE: Intermenstrual Bleeding*,0 n (%)
same,TEAE: Irritability,1 (<1%) n (%)
same,TEAE: Ischaemic Coronary Artery Disorders,0 n (%)
same,TEAE: Labyrinthitis NOS,1 (<1%) n (%)
same,TEAE: Lacrimal Disorders,0 n (%)
same,TEAE: Lactose Intolerance,1 (<1%) n (%)
same,TEAE: Laryngeal and Adjacent Sites Disorders NEC (Excl Infections and Neoplasms),1 (<1%) n (%)
same,TEAE: Laryngitis NOS,1 (<1%) n (%)
same,TEAE: Leiomyoma NOS,0 n (%)
same,TEAE: Lethargy,1 (<1%) n (%)
same,TEAE: Leukopenia NOS,0 n (%)
same,TEAE: Leukopenias NEC,0 n (%)
same,TEAE: Libido Decreased,1 (<1%) n (%)
same,"TEAE: Lid, Lash and Lacrimal Structural Disorders (Excl Congenital)",0 n (%)
same,TEAE: Lipid Metabolism Disorder NOS,0 n (%)
same,TEAE: Lipid Metabolism and Deposit Disorders NEC,0 n (%)
same,TEAE: Lipoma NOS,0 n (%)
same,TEAE: Lower Respiratory Tract Signs and Symptoms,1 (<1%) n (%)
same,TEAE: Lymphadenopathy,1 (<1%) n (%)
same,TEAE: Lymphangitis and Lymphatic Disorders NEC,1 (<1%) n (%)
same,TEAE: Meniere's Disease,0 n (%)
same,TEAE: Menorrhagia*,1 (<1%) n (%)
same,TEAE: Menstruation Irregular*,1 (<1%) n (%)
same,TEAE: Menstruation and Uterine Bleeding NEC*,1 (<1%) n (%)
same,TEAE: Menstruation with Decreased Bleeding*,0 n (%)
same,TEAE: Menstruation with Increased Bleeding*,1 (<1%) n (%)
same,TEAE: Mental Disorders NEC,1 (<1%) n (%)
same,TEAE: Mental Status Changes,1 (<1%) n (%)
same,TEAE: Metabolism and Nutrition Disorders,10 (4%) n (%)
same,TEAE: Middle Ear Disorders NEC,0 n (%)
same,TEAE: Motion Sickness,1 (<1%) n (%)
same,TEAE: Myocardial Infarction,0 n (%)
same,TEAE: Nail and Nail Bed Conditions (Excl Infections and Infestations),1 (<1%) n (%)
same,TEAE: Nasal Congestion and Inflammations,1 (<1%) n (%)
same,TEAE: Neoplasms Benign Site Unspecified NEC,1 (<1%) n (%)
same,"TEAE: Neoplasms Benign, Malignant and Unspecified (Incl Cysts and Polyps)",6 (2%) n (%)
same,"TEAE: Normal Pregnancy, Labour and Delivery*",0 n (%)
same,TEAE: Ocular Disorders NEC,1 (<1%) n (%)
same,TEAE: Ocular Nerve and Muscle Disorders,2 (<1%) n (%)
same,TEAE: Oedema NEC,3 (1%) n (%)
same,TEAE: Oedema NOS,1 (<1%) n (%)
same,TEAE: Oedema Peripheral,2 (<1%) n (%)
same,TEAE: Ovarian Cancer NOS*,0 n (%)
same,TEAE: Ovarian Cystadenofibroma*,1 (<1%) n (%)
same,TEAE: Ovarian Neoplasms Benign*,1 (<1%) n (%)
same,TEAE: Ovarian Neoplasms Malignant (Excl Germ Cell)*,0 n (%)
same,TEAE: Pain NOS,1 (<1%) n (%)
same,TEAE: Pain and Discomfort NEC,7 (3%) n (%)
same,TEAE: Palpitations,2 (<1%) n (%)
same,TEAE: Panic Attack,1 (<1%) n (%)
same,TEAE: Panic Symptoms,1 (<1%) n (%)
same,TEAE: Papulosquamous Conditions,1 (<1%) n (%)
same,TEAE: Paranasal Sinus Disorders (Excl Infections and Neoplasms),3 (1%) n (%)
same,TEAE: Paranasal Sinus Hypersecretion,0 n (%)
same,TEAE: Partial Vision Loss,1 (<1%) n (%)
same,TEAE: Pelvic Pain NOS,2 (<1%) n (%)
same,TEAE: Penile Disorders NEC (Excl Erection and Ejaculation)*,1 (1%) n (%)
same,TEAE: Penile Haemorrhage*,1 (1%) n (%)
same,TEAE: Perception Disturbances,1 (<1%) n (%)
same,TEAE: Peripheral Embolism NOS,1 (<1%) n (%)
same,TEAE: Peripheral Embolism and Thrombosis,1 (<1%) n (%)
same,TEAE: Peripheral Vascular Disorders NEC,0 n (%)
same,TEAE: Pharyngitis,3 (1%) n (%)
same,TEAE: Polydipsia,1 (<1%) n (%)
same,TEAE: Polyuria,1 (<1%) n (%)
same,TEAE: Posterior Capsule Opacification,1 (<1%) n (%)
same,TEAE: Postnasal Drip,1 (<1%) n (%)
same,TEAE: Pregnancy NOS*,0 n (%)
same,"TEAE: Pregnancy, Puerperium and Perinatal Conditions",0 n (%)
same,TEAE: Premenopause*,1 (<1%) n (%)
same,TEAE: Premenstrual Syndrome*,0 n (%)
same,TEAE: Productive Cough,0 n (%)
same,TEAE: Prostate and Seminal Vesicles Infections and Inflammations*,1 (1%) n (%)
same,TEAE: Prostatitis*,1 (1%) n (%)
same,TEAE: Proteinuria,0 n (%)
same,TEAE: Pruritus NEC,1 (<1%) n (%)
same,TEAE: Pruritus NOS,1 (<1%) n (%)
same,TEAE: Psoriasis,1 (<1%) n (%)
same,TEAE: Psychiatric Disorders,17 (6%) n (%)
same,TEAE: Psychotic Disorder NEC,1 (<1%) n (%)
same,TEAE: Psychotic Disorder NOS,1 (<1%) n (%)
same,TEAE: Purine Metabolism Disorders NEC,0 n (%)
same,TEAE: Pyrexia,1 (<1%) n (%)
same,TEAE: Rash Macular,2 (<1%) n (%)
same,TEAE: Rash NOS,2 (<1%) n (%)
same,"TEAE: Rashes, Eruptions and Exanthems NEC",4 (1%) n (%)
same,TEAE: Rate and Rhythm Disorders NEC,2 (<1%) n (%)
same,TEAE: Refractive Errors NOS,0 n (%)
same,TEAE: Refractive and Accommodative Disorders,0 n (%)
same,TEAE: Renal Lithiasis,0 n (%)
same,TEAE: Renal and Urinary Disorders,4 (1%) n (%)
same,TEAE: Reproductive System and Breast Disorders,12 (4%) n (%)
same,TEAE: Reproductive Tract Signs and Symptoms NEC,2 (<1%) n (%)
same,TEAE: Respiratory Tract Congestion,1 (<1%) n (%)
same,TEAE: Respiratory Tract Disorders NEC,1 (<1%) n (%)
same,"TEAE: Respiratory, Thoracic and Mediastinal Disorders",18 (6%) n (%)
same,TEAE: Retinal Detachment,0 n (%)
same,"TEAE: Retinal Structural Change, Deposit and Degeneration",0 n (%)
same,TEAE: Rhinitis Allergic NOS,1 (<1%) n (%)
same,TEAE: Rhinitis NOS,0 n (%)
same,TEAE: Rhinitis Seasonal,0 n (%)
same,TEAE: Rosacea,0 n (%)
same,TEAE: Rosaceas,0 n (%)
same,TEAE: Seasonal Allergy,1 (<1%) n (%)
